Results reported in patent EP2818472A1, “Imidazo[4,5-c]pyridine and pyrrolo[3,2-c]pyridine compounds as G-protein-coupled receptor kinase 5 (GRK5) modulators” (Max-Planck-Gesellschaft zur Förderung der Wissenschaften …, priority 2013, dated 2014).

tested on: beta-TC6 cells; test: Insulin HTRF assay (relative activity Ar) in beta-TC6 cells; type: cell-based, mouse; details: Mus musculus, Beta-TC6, 4 h, insulin HTRF, supernatant of beta-TC6 cells, incubation with test compound at 37°C for 2, 3, 4h; read-out: Ar (relative activity)
Method in brief: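 beta-TC6 cells (15k/well, seeded 24 or 48 h) washed, then exposed to compound in induction buffer (0.5% DMSO final) for 2, 3 or 4 h at 37°C.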

Compared with `CC(=O)Nc1ccc(Nc2cc3c(cn2)cc(-c2cnn(C)c2)n3C)cc1` [Compound 126, N-[4-[[1-methyl-2-(1-methylpyrazol-4-yl)pyrrolo[3,2-c]pyridin-6-yl]amino]phenyl]acetamide], `CC(=O)Nc1cccc(Nc2cc3c(cn2)cc(-c2cnn(C)c2)n3C)c1` [Compound 149, N-[3-[[1-methyl-2-(1-methylpyrazol-4-yl)pyrrolo[3,2-c]pyridin-6-yl]amino]phenyl]acetamide] is higher in Emax: 50 to 100% for the first, > 100% for the second.

`COc1cccc(Nc2cc3c(cn2)cc(-c2cnn(C)c2)n3C)c1` [Compound 127, N-(3-methoxyphenyl)-1-methyl-2-(1-methylpyrazol-4-yl)pyrrolo[3,2-c]pyridin-6-amine] and `Cc1cccc(Nc2cc3c(cn2)cc(-c2cnn(C)c2)n3C)c1` [Compound 136, 1-methyl-2-(1-methylpyrazol-4-yl)-N-(m-tolyl)pyrrolo[3,2-c]pyridin-6-amine] fall in the same range of Emax: 50 to 100% for the first, 50 to 100% for the second.

Compared with `Cn1cc(-c2cc3cnc(Nc4ccc5c(c4)OCCO5)cc3n2C)cn1` [Compound 128, N-(2,3-dihydro-1,4-benzodioxin-6-yl)-1-methyl-2-(1-methylpyrazol-4-yl)pyrrolo[3,2-c]pyridin-6-amine], `Cn1cc(-c2cc3cnc(Nc4ccc5c(c4)OCO5)cc3n2C)cn1` [Compound 143, N-(1,3-benzodioxol-5-yl)-1-methyl-2-(1-methylpyrazol-4-yl)pyrrolo[3,2-c]pyridin-6-amine] is higher in Emax: 50 to 100% for the first, > 100% for the second.

`COc1ccc(Nc2cc3c(cn2)cc(-c2cnn(C)c2)n3C)cc1OC` [Compound 129, N-(3,4-dimethoxyphenyl)-1-methyl-2-(1-methylpyrazol-4-yl)pyrrolo[3,2-c]pyridin-6-amine] and `COc1ccc(Nc2cc3c(cn2)cc(-c2cnn(C)c2)n3C)cn1` [Compound 130, N-(6-methoxy-3-pyridyl)-1-methyl-2-(1-methylpyrazol-4-yl)pyrrolo[3,2-c]pyridin-6-amine] cannot be ordered by Emax: > 100% for the first, > 100% for the second.

Compared with `Cn1cc(-c2cc3cnc(Nc4cccnc4)cc3n2C)cn1` [Compound 131, 1-methyl-2-(1-methylpyrazol-4-yl)-N-(3-pyridyl)pyrrolo[3,2-c]pyridin-6-amine], `Cn1cc(-c2cc3cnc(Nc4ccncc4)cc3n2C)cn1` [Compound 135, 1-methyl-2-(1-methylpyrazol-4-yl)-N-(4-pyridyl)pyrrolo[3,2-c]pyridin-6-amine] is lower in Emax: > 100% for the first, 50 to 100% for the second.

First: Cn1cc(-c2cc3cnc(Nc4ccccc4)cc3n2C)cn1 [Compound 132, 1-methyl-2-(1-methylpyrazol-4-yl)-N-phenyl-pyrrolo[3,2-c]pyridin-6-amine]
Second: Cn1cc(-c2cc3cnc(Nc4cccc(O)c4)cc3n2C)cn1 [Compound 144, 3-[[1-methyl-2-(1-methylpyrazol-4-yl)pyrrolo[3,2-c]pyridin-6-yl]amino]phenol]
The Emax of the first is lower: 50 to 100% for the first, > 100% for the second.

`CN1CCN(c2ccc(Nc3cc4c(cn3)cc(-c3cnn(C)c3)n4C)cc2)CC1` [Compound 133, 1-methyl-N-[4-(4-methylpiperazin-1-yl)phenyl]-2-(1-methylpyrazol-4-yl)pyrrolo[3,2-c]pyridin-6-amine] and `Cn1cc(-c2cc3cnc(Nc4ccc(F)cc4)cc3n2C)cn1` [Compound 138, N-(4-fluorophenyl)-1-methyl-2-(1-methylpyrazol-4-yl)pyrrolo[3,2-c]pyridin-6-amine] fall in the same range of Emax: 50 to 100% for the first, 50 to 100% for the second.

`CN(C)c1cccc(Nc2cc3c(cn2)cc(-c2cnn(C)c2)n3C)c1` [Compound 134, N1,N1-dimethyl-N3-[1-methyl-2-(1-methylpyrazol-4-yl)pyrrolo[3,2-c]pyridin-6-yl]benzene-1,3-diamine] and `Cn1cc(-c2cc3cnc(Nc4cccc(F)c4)cc3n2C)cn1` [Compound 151, N-(3-fluorophenyl)-1-methyl-2-(1-methylpyrazol-4-yl)pyrrolo[3,2-c]pyridin-6-amine] fall in the same range of Emax: 50 to 100% for the first, 50 to 100% for the second.

`Cn1cc(-c2cc3cnc(Nc4ccccn4)cc3n2C)cn1` [Compound 139, 1-methyl-2-(1-methylpyrazol-4-yl)-N-(2-pyridyl)pyrrolo[3,2-c]pyridin-6-amine] and `Cn1cc(-c2cc3cnc(Nc4ccncn4)cc3n2C)cn1` [Compound 147, 1-methyl-2-(1-methylpyrazol-4-yl)-N-pyrimidin-4-yl-pyrrolo[3,2-c]pyridin-6-amine] fall in the same range of Emax: 50 to 100% for the first, 50 to 100% for the second.

Compared with `CN(c1ccccc1)c1cc2c(cn1)cc(-c1cnn(C)c1)n2C` [Compound 140, N,1-dimethyl-2-(1-methylpyrazol-4-yl)-N-phenyl-pyrrolo[3,2-c]pyridin-6-amine], `CC(=O)c1cccc(Nc2cc3c(cn2)cc(-c2cnn(C)c2)n3C)c1` [Compound 150, 1-[3-[[1-methyl-2-(1-methylpyrazol-4-yl)pyrrolo[3,2-c]pyridin-6-yl]amino]phenyl]ethanone] is higher in Emax: 30 to 50% for the first, 50 to 100% for the second.

First: COC(=O)c1ccc(Nc2cc3c(cn2)cc(-c2cnn(C)c2)n3C)cc1 [Compound 141, methyl 4-[[1-methyl-2-(1-methylpyrazol-4-yl)pyrrolo[3,2-c]pyridin-6-yl]amino]benzoate]
Second: CN(C)C(=O)c1ccc(Nc2cc3c(cn2)cc(-c2cnn(C)c2)n3C)cc1 [Compound 148, N,N-dimethyl-4-[[1-methyl-2-(1-methylpyrazol-4-yl)pyrrolo[3,2-c]pyridin-6-yl]amino]benzamide]
The Emax of the first is lower: 50 to 100% for the first, > 100% for the second.

Compared with `Cn1cc(-c2cc3cnc(Nc4ccc(C#N)cc4)cc3n2C)cn1` [Compound 142, 4-[[1-methyl-2-(1-methylpyrazol-4-yl)pyrrolo[3,2-c]pyridin-6-yl]amino]benzonitrile], `CSc1ccc(Nc2cc3c(cn2)cc(-c2cnn(C)c2)n3C)cc1` [Compound 153, 1-methyl-2-(1-methylpyrazol-4-yl)-N-(4-methylsulfanylphenyl)pyrrolo[3,2-c]pyridin-6-amine] is lower in Emax: 50 to 100% for the first, 30 to 50% for the second.

First: Cn1cc(-c2cc3cnc(N4CCOCC4)cc3n2C)cn1 [Compound 145, 4-[1-methyl-2-(1-methylpyrazol-4-yl)pyrrolo[3,2-c]pyridin-6-yl]morpholine]
Second: Cn1cc(-c2cc3cnc(N4CCOCC4)cc3n2Cc2ccccc2)cn1 [Compound 155, 4-[1-benzyl-2-(1-methylpyrazol-4-yl)pyrrolo[3,2-c]pyridin-6-yl]morpholine]
The Emax of the first is higher: > 100% for the first, 50 to 100% for the second.

First: Cn1cc(-c2cc3cnc(Nc4cccc(OC(F)(F)F)c4)cc3n2C)cn1 [Compound 146, 1-methyl-2-(1-methylpyrazol-4-yl)-N-[3-(trifluoromethoxy)phenyl]pyrrolo[3,2-c]pyridin-6-amine]
Second: Cn1cc(-c2cc3cnc(Nc4ccc(S(C)(=O)=O)cc4)cc3n2C)cn1 [Compound 152, 1-methyl-2-(1-methylpyrazol-4-yl)-N-(4-methylsulfonylphenyl)pyrrolo[3,2-c]pyridin-6-amine]
The Emax of the first is lower: 30 to 50% for the first, > 100% for the second.

First: CN1CCN(c2cc3c(cn2)cc(-c2cnn(C)c2)n3Cc2ccccc2)CC1 [Compound 154, 1-benzyl-6-(4-methylpiperazin-1-yl)-2-(1-methylpyrazol-4-yl)pyrrolo[3,2-c]pyridine]
Second: CC(=O)Nc1cccc(Nc2cc3c(cn2)cc(-c2cnn(C)c2)n3Cc2ccccc2)c1 [Compound 157, N-[3-[[1-benzyl-2-(1-methylpyrazol-4-yl)pyrrolo[3,2-c]pyridin-6-yl]amino]phenyl]acetamide]
The Emax of the first is lower: 30 to 50% for the first, 50 to 100% for the second.

First: Cn1cc(-c2cc3cnc(Nc4cccc(NS(C)(=O)=O)c4)cc3n2Cc2ccccc2)cn1 [Compound 156, N-[3-[[1-benzyl-2-(1-methylpyrazol-4-yl)pyrrolo[3,2-c]pyridin-6-yl]amino]phenyl]methanesulfonamide]
Second: CC(=O)N(C)c1cccc(-c2cc3cnc(Nc4cccnc4)cc3n2C)c1 [Compound 162, N-methyl-N-[3-[1-methyl-6-(3-pyridylamino)pyrrolo[3,2-c]pyridin-2-yl]phenyl]acetamide]
The Emax of the first is lower: 30 to 50% for the first, 50 to 100% for the second.

`COc1cc(Nc2cc3c(cn2)cc(-c2cccc(N(C)C(C)=O)c2)n3C)cc(OC)c1OC` [Compound 158, N-methyl-N-[3-[1-methyl-6-(3,4,5-trimethoxyanilino)pyrrolo[3,2-c]pyridin-2-yl]phenyl]acetamide] and `COc1ccc(Nc2cc3c(cn2)cc(-c2cccc(N(C)C(C)=O)c2)n3C)cc1OC` [Compound 160, N-[3-[6-(3,4-dimethoxyanilino)-1-methyl-pyrrolo[3,2-c]pyridin-2-yl]phenyl]-N-methyl-acetamide] fall in the same range of Emax: 50 to 100% for the first, 50 to 100% for the second.

First: CC(=O)N(C)c1cccc(-c2cc3cnc(Nc4ccc(C(N)=O)cc4)cc3n2C)c1 [Compound 159, 4-[[2-[3-[acetyl(methyl)amino]phenyl]-1-methyl-pyrrolo[3,2-c]pyridin-6-yl]amino]benzamide]
Second: COc1ccc(Nc2cc3c(cn2)cc(-c2cccc(N(C)C(C)=O)c2)n3C)cc1 [Compound 166, N-[3-[6-(4-methoxyanilino)-1-methyl-pyrrolo[3,2-c]pyridin-2-yl]phenyl]-N-methyl-acetamide]
The Emax of the first is higher: 50 to 100% for the first, 30 to 50% for the second.

First: COc1ccc(Nc2cc3c(cn2)cc(-c2cccc(N(C)C(C)=O)c2)n3C)cn1 [Compound 161, N-[3-[6-[(6-methoxy-3-pyridyl)amino]-1-methyl-pyrrolo[3,2-c]pyridin-2-yl]phenyl]-N-methyl-acetamide]
Second: CC(=O)N(C)c1cccc(-c2cc3cnc(Nc4cccc(N(C)C)c4)cc3n2C)c1 [Compound 165, N-[3-[6-[3-(dimethylamino)anilino]-1-methyl-pyrrolo[3,2-c]pyridin-2-yl]phenyl]-N-methyl-acetamide]
The Emax of the first is lower: 50 to 100% for the first, > 100% for the second.

`CC(=O)N(C)c1cccc(-c2cc3cnc(Nc4ccc(N5CCOCC5)cc4)cc3n2C)c1` [Compound 163, N-methyl-N-[3-[1-methyl-6-(4-morpholinoanilino)pyrrolo[3,2-c]pyridin-2-yl]phenyl]acetamide] and `CC(=O)N(C)c1cccc(-c2cc3cnc(Nc4ccc(N5CCN(C)CC5)cc4)cc3n2C)c1` [Compound 164, N-methyl-N-[3-[1-methyl-6-[4-(4-methylpiperazin-1-yl)anilino]pyrrolo[3,2-c]pyridin-2-yl]phenyl]acetamide] fall in the same range of Emax: 50 to 100% for the first, 50 to 100% for the second.
